Where two headings read alike, the source gives them in different places. Where only a bound is given, the exact number is not on record here.

In one assay the target is T1, human MCT1 (Homo sapiens, UniProt P53985, D490E).
T1 sequence (P53985 1-500 D490E): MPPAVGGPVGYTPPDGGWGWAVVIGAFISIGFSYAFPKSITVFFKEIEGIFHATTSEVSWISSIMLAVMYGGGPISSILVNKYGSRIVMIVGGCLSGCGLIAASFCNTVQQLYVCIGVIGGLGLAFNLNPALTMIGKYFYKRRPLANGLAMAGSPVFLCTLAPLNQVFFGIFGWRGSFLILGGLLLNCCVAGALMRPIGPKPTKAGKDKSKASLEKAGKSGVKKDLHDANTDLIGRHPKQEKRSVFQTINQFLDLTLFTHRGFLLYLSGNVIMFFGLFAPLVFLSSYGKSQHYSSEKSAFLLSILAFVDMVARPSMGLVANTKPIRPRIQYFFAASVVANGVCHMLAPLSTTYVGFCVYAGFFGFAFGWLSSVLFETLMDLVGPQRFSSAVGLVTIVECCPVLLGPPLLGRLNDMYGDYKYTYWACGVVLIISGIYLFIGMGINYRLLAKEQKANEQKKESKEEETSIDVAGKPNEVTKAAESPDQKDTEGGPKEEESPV
T1 sequence (P26453 142-388 partner limits assumed): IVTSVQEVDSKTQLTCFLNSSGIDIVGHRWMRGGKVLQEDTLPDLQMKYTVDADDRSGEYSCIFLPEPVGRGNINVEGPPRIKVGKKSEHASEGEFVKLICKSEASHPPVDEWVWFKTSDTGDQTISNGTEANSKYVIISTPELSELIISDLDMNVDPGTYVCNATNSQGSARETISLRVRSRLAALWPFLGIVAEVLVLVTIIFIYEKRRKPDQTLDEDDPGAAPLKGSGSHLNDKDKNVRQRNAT
In words: Lactate uptake by change in intracellular pH (BCECF) in INS-1 cells expressing MCT. As to conditions: 100 nM, INS-1 cells expressing human MCT1, n=2. It counts as cell-based.

For assay [1], the system named is activated T-lymphocytes. In words: Intracellular lactate levels in activated T-lymphocytes (lactate oxidase). It counts as cell-based. As to conditions: Homo sapiens, T-lymphocyte; Mean±s.e.mean (mean±range for n=2); read-out: pIA50 Intracellular Lactate (converted). As to the method:
(§1) PBMCs were prepared as described above by separation over Lymphoprep and T-lymphocytes were then enriched by purification on a nylon wool column. Briefly, 0.6 g nylon wool was inserted into a 10 ml syringe and this was autoclaved. […] The PBMC were resuspended in 1 ml of pre-warmed RPMI (20% HS) and were loaded onto the nylon wool column. The column was incubated for 45 min at 37° C. followed by elution of the T-cells by adding 10 ml RPMI (20% HS) (prewarmed to 37° C.) dropwise to the column. The T-cells obtained from the elution of the column were centrifuged (850 g for 5 min) and resuspended in RPMI containing L-glutamine and 5% human serum and stimulated with 0.5 ng/ml PMA and 500 ng/ml lonomycin for 48 h.
100 μl of each concentration were added to triplicate wells of a 24-well plate. T-cells were then added (1 ml per well) and were cultured for 4 h under standard cell culture conditions. The cells were then transferred from each well to microfuge tubes and were centrifuged at 360 g for 5 min at 4° C. The supernatant was discarded and the cell pellet was resuspended in 1 ml of ice-cold PBS, pH5.0. The cells were washed twice in PBS by centrifugation (360 g, 5 min, 4° C.) followed by resuspension of the cell pellet in 100 μl deionized water. The cells were incubated for 15 min at 4° C. to allow cell lysis to occur and the cell debris was removed by centrifugation at 15000 g for 10 min at 4° C. 10 μl of each supernatant sample were used for the lactate determination.
(§2) The assay was carried out in 96-well plates at room temperature. 10 μl of standard or sample were added to each well followed by 200 μl of the Lactate Reagent. […] The data were collected and analysed using SOFTmax PRO software (Molecular Devices).

The subject of a further assay is Splenic B-lymphocytes. In words: Inhibition of B-lymphocyte proliferation. It counts as cell-based, Balb/c mice. As to conditions: 48 hours. As to the method: Splenic B-lymphocytes were obtained from Balb/c mice by disruption of the spleen through a nylon sieve. The resultant cellular suspension was washed three times by centrifugation. The spleen cells were then plated out in flat-bottomed 96 well microtitre plates at a concentration of 2-4×10^5 cells per well. B-lymphocyte stimulators were added with or without compound. Stimulators employed were lipopolysaccharide (LPS) at 50 μg/ml, 8-mercaptoguanosine (8MG) at 100 μg/ml, or goat anti mouse IgM at 40 μg/ml. […] The cultures were incubated for 48 hours at 37° C. and pulsed with tritiated thymidine for the final 6 hours. The cells were harvested as described previously and thymidine uptake used as a measure of DNA synthesis.

Assay [2] deals with peripheral blood mononuclear cells (PBMC). Nature of the assay: T-lymphocyte proliferation, PMA/ionomycin stimulated PBMC, 3 days. The following applies: Homo sapiens, 72 h, read-out: pIA50 Proliferation (3 days) (converted).
Source text: The cell signalling pathways triggered by T-cell activation through the T cell receptor and CD28 can be mimicked in vitro using a phorbol ester, phorbol 12-myristate 13-acetate (PMA), which activates protein kinase C, and ionomycin, which induces calcium release from internal cellular stores. PMA and ionomycin-stimulated proliferation of peripheral blood mononuclear cells (PBMC), of which the predominant cell type is T-lymphocytes, provides a suitable assay for measuring the ability of small molecules to block T-cell proliferation.
Blood was centrifuged at 850 g for 10 minutes and the plasma was removed. […] The blood/Lymphoprep layers were centrifuged at 850 g for 20 minutes at 18° C. (with no brake).
10 μl of compound in solution was then added to the 96-well flat bottom assay plate (final volume of 200 μl). […] Both were diluted to 4× the final assay concentration in complete medium. 50 μl of each reagent was dispensed per well to give a final assay concentration of 0.5 ng/ml PMA and 500 ng/ml ionomycin. Control wells received 100 μl cells with PMA only (negative control 1), with ionomycin only (negative control 2) and 100 μl cells with 50 μl PMA and 50 μl ionomycin with no test compound (positive control). 100 μl complete medium was added to the negative controls. […]
For assay [3], the system named is activated T-lymphocytes. Nature of the assay: DNA synthesis ([3H]-thymidine incorporation) in activated T-lymphocytes. It counts as cell-based. The following applies: Homo sapiens, T-lymphocyte; Mean±s.e.mean (mean±range for n=2); read-out: pIA50 DNA (converted). The method, then:
as §1
DNA synthesis was assessed by measuring the incorporation of [^3H]-thymidine. The assay was carried out in a 96-well plate. 20 μl of test compounds at 10× the final concentration were added to the plate followed by 200 μl of T-cells per well (2×10^5 cells). The cells were cultured for 4 h under standard cell culture conditions and cultures were pulsed with ^3H-thymidine (0.5 μCi/well; Amersham) for the final hour of the incubation.
(Uptake of a labelled nucleoside into DNA is a usual measure of proliferation.)

Assay [4] deals with activated T-lymphocytes. In words: Extracellular lactate levels in activated T-lymphocytes (lactate oxidase). It counts as cell-based, human. As to conditions: Homo sapiens, T-lymphocyte; Mean±s.e.mean (mean±range for n=2); read-out: pIA50 Extracellular Lactate (converted). As to the method:
as §1
20 μl of each concentration were added to triplicate wells of a 96-well plate. T-cells were then added (200 μl per well, 2×10^5 cells) and were cultured for 4 h under standard cell culture conditions. The cell supernatants were collected from each well after the cells were pelleted by centrifugation of the plate at 850 g for 5 min at 4° C. 10 μl of each supernatant sample were used for the lactate determination.
as §2

Source text for human MCT1: As lactate entry into cells is proton-linked, the addition of exogenous lactate to cells expressing functionally active MCT isoforms results in a significant decrease in intracellular pH. Lactate uptake by this method can be measured in cells endogenously expressing MCT isoforms (e.g., K562 and MDA-MB231 cells) or in cells transfected with cloned MCT isoforms (e.g., MCT1, 3 and 4) expressed in SF9 or INS-1 cells as follows. […] INS-1 cells were transfected with pcDNA3-hMCT1 using the Fugene™ 6 Transfection Reagent (Roche Molecular Biochemicals, Indianapolis, Ind., USA) to manufacturers instructions. Stably transfected cells were selected with 100 μg/ml Genetecin (Gibco Laboratories, Grand Island, N.Y.) to generate INS-1 MCT1 mixed populations, which were subsequently dilution cloned to generate INS-1 MCT1 clones. […]
Following BCECF labelling, 10 μl of the relevant cell suspension was added to each well of a 96 well plate (Biocat Poly-D-Lysine coated clear-bottomed black plates, Becton Dickinson) and 10 μl of inhibitor or vehicle control was added per well at 10× final concentration. […] The 96 well plate was then placed in the FLEXstation and fluorescence was measured using the following wavelengths:
The experiment was set up so that a reading at time zero was made, the lactate was added to the plate, and then readings were made every 3 seconds for 3 mins. […]

With `CC(C)Cc1nn(C)c(=O)c2c(SCCCO)n(Cc3cccc4ccccc34)cc12` [Ligand 2, 2,6-dihydro-7-[(3-hydroxypropyl)thio]-2-methyl-4-(2-methylpropyl)-6-(1-napthanlenylmethyl)-1H-pyrrolo[3,4-d]pyridazin-1-one], on human MCT1, the “effect on decrease in intracellular pH on addition of exogenous lactate” value is recorded as “completely abolished”. For the same compound, the EC50 in the assay on activated T-lymphocytes [1] is 0.55 nM. The IC50 with Splenic B-lymphocytes (Mus musculus, 8-mercaptoguanosine 100 μg/ml, partial inhibition, read-out: IA50, proliferative response to 8MG) is 10 nM; in the assay with Splenic B-lymphocytes (Mus musculus, LPS 50 μg/ml, partial inhibition, read-out: IA50, proliferative response to LPS), 5 nM; in the assay with Splenic B-lymphocytes (goat anti mouse IgM 40 μg/ml, weak, read-out: IA50, proliferative response to goat anti-mouse IgM) it was above 100 nM; in assay [2] it was 0.38 nM; in the assay on activated T-lymphocytes [3], 1.35 nM; in the assay with activated T-lymphocytes [4], 0.794 nM.

Values taken from patent US20040072746A1, “Inhibitors of monocarboxylate transport” (priority 2001, published 2004).
